Results published in paper PMC8298097 (eLife, 2021).
Each block holds one substance with its values, some of them ahead of it.

Key:
[1] = tested on: GIPR; conditions: maximum response compared with human GIP; ref Sparre-Ulrich et al., 2016; Bailey, 2020; cited from earlier work
Source text: Species differences in class B1 receptor responsiveness are diversified and receptor specific, which is tolerable for some receptors such as GLP-1R and GCGR, but leads to concerns for others like GIPR and parathyroid hormone receptor-2 (PTH2R) ([Sparre-Ulrich et al., 2016]; [Hoare et al., 1999]). […] Such a divergence is not caused by changes in peptide potency, but r ...

[2] = tested on: GCGR; conditions: cognate receptor, ref Yuliantie et al., 2020, Darbalaei et al.; cited from earlier work
[3] = target: T1, human GIPR Y68A, HA-Flag-3GSA-GIPR(22-466) (human) (UniProt P48546)
T1 sequence: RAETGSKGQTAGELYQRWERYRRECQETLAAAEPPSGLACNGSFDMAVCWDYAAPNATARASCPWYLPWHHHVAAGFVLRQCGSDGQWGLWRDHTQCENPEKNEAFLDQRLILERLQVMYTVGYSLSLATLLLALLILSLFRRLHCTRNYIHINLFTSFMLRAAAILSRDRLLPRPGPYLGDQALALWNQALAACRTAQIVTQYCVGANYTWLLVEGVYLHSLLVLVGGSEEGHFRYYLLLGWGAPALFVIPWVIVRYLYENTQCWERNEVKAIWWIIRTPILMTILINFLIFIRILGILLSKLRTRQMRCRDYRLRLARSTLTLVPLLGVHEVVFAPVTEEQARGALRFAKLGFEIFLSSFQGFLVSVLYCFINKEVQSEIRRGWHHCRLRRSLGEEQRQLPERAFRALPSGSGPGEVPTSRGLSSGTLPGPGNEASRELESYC

Substance: Human (Pro3)GIP: full agonist with identical maximum response as human GIP (YAPGTFISDYSIAMDKIHQQDFVNWLLAQKGKKNDWKHNITQ; Gastric inhibitory polypeptide; UniProt P09681 52-93, looked up, variant E3P)
agonism [1]: full agonist with identical maximum response as human GIP

Substance: glucagon
pIC50 [2]: 7.31

GIP(1-42)-stimulated cAMP accumulation in HEK 293T cells, pEC50 [3]: 6.79
Substance: glucose-dependent insulinotropic polypeptide GIP(1-42) (from UniProt P09681 52-93)
